Experimental data taken from patent US20210128680A1, “METHOD FOR TREATING CARDIOPULMONARY DISORDER” (Chang Gung University, priority 2019, published 2021).
“Also recorded” adds a separate entry of the source.

Tests used:
[1] = system: control (CON) PASMCs; test: BrdU incorporation cell proliferation assay, control PASMCs; type: cell-based, rat; conditions: compared with vehicle treatment, FIG. 5
Procedure: (§1) PASMCs were isolated from lungs of MCT-treated or control rats using the explant method, as described previously (Lai Y J et al. Am J Respir Crit Care Med. 2008, 178(2):188-96). To culture PASMCs, the PA was dissected from lung and cardiac tissues. The pulmonary arterial tissue was cut into small pieces and suspended in Dulbecco's modified Eagle's medium (DMEM) (Gibco) containing 100 U/mL penicillin, 100 µg/mL streptomycin (Gibco), and 20% fetal bovine serum (FBS) (Gibco). We observed a decrease in desmin, a smooth muscle cell gene marker, at passage 3. Therefore, rat PASMCs were used before passage 3 for all of the in vitro experiments. Characterization of PASMCs was performed by immunocytochemical staining with anti-α-SM-actin (Sigma-Aldrich) and anti-desmin (NeoMakers) antibodies.
(§2) The proliferative activity of PASMCs and the effects of the lumikine were determined by an ELISA-based 5-bromo-2-deoxyuridine (BrdU) incorporation assay kit (Roche Diagnostics Co.) according to the manufacturer's instructions.
(§3) Proliferation of PASMC is critical to the development of PAH. To characterize whether lumikine affected the proliferation of PASMCs in PAH and non-PAH subjects, the PASMCs were isolated from rats with or without MCT induced PAH.

[2] = system: MCT PASMCs; test: BrdU incorporation cell proliferation assay, MCT PASMCs; type: cell-based, rat; conditions: FIG. 5 panel B
Procedure: as §1, §2, §3

[3] = system: human PASMCs; test: Western blot of protein expression in human PASMCs under in vitro hypoxia; type: cell-based
Procedure: Human PASMCs were obtained from commercial sources (Lonza). Cells were grown in SMC growth medium (5% FBS, 1 μg/ml hydrocortisone, 10 ng/ml human epidermal growth factor, 3 ng/ml basic fibroblast growth factor, 10 μg/ml heparin, 10 μg/ml gentamycin, and 0.25 μg/ml amphotericin) (Lonza) and were used between passages 4 and 7. Cells were starved in SMC medium with 0.1% FBS for 24 h before the experiment. Human PASMCs were cultured in the TGF-β 2.5 ng/ml condition for 6 hours to determine the effect of lumikine on the protein expressions.
Human PASMCs were cultured in the hypoxic condition for 24 hours to determine the effect of lumikine on the protein expressions. Hypoxia was created in an incubator: 5% CO2+94% N2+[…], 37° C. Lumikine were dissolved in culture medium at a final concentration of 100 nM.
Tissue samples or cell samples were homogenized in lysis buffer containing 50 mM Tris-HCl, pH 7.4, 50 mM NaCl, 5 mM EDTA, 1% Triton X-100, 0.05% SDS, 50 mM NaF, 10 mM β-glycerophosphate, sodium pyrophosphate, 100 μM Na3VO4, and protease inhibitor cocktail (Calbiochem, Millipore). Immunoblotting was performed using anti-lumican (Abcam; 1:2000), ant-HIF-1α(Abeam; 1:1000), anti-p-AKT, or AKT (Cell Signaling; 1:1000), and anti-p-SMAD2 (Cell Signaling; 1:1000), as primary antibodies. Secondary antibodies specific for peroxidase-conjugated anti-mouse IgG (Jackson; 1:10000) or anti-rabbit IgG (Jackson; 1:10000) were used as needed. Blots were visualized using an enhanced chemi-luminescence detection system (Millipore). Samples were normalized to GAPDH (Santa Cruz; 1:10000) and quantified by densitometry.
In this example, in vitro hypoxic (1% oxygen) model was used to evaluate the effect of the present synthetic peptide—lumikine (SEQ ID NO: 2) on pulmonary arterial smooth muscle cell (PASMCs).

[4] = system: hypoxia-induced PAH mice; test: Hypoxia-induced PAH mice: RV hypertrophy and pulmonary artery medial wall thickness; type: in vivo; conditions: for right ventricular (RV) weight (RV/LV+S ratio): hypoxia (10% O2) mice, 3 ng/kg/day, 28 days, FIG. 6 panel A
Procedure: Adult male Sprague-Dawley rats (200-250 g in body weight) were randomized assigned into two groups for treatment of 28 days after s.c. injection of saline or 60 mg/kg monocrotaline (MCT) (Sigma-Aldrich) to induce pulmonary hypertension (PH). Rats were examined after 3 weeks of treatment (on day 28). Hypoxic pulmonary vascular remodeling was induced by exposure of mice (8-week-old C57BL/6) to chronic hypoxia (10% 02) in a ventilated chamber, as described previously (Li H H et al. Am J Physiol Lung Cell Mol Physiol. 2017: ajplung 00245 2017). The chronic effects of lumikne were assessed in mice exposed to hypoxia for 28 days. Briefly, animals were kept in hypoxic conditions to develop pulmonary hypertension. […] All animal experimental protocols were reviewed and approved by the Chang Gung University IACUC. This study was carried out in strict accordance with the recommendations in the Guide for the Care and Use of Laboratory Animals of the National Institutes of Health. Housing and maintenance was provided by Chang Gung University, and all animals were fed a standard chow diet with free access to water. After sacrifice, the RV wall was separated from the LV wall and ventricular septum. Wet weight of the RV, free LV wall, and ventricular septum was determined and weighted. RV hypertrophy was expressed as the ratio of weight of the RV wall and that of the free LV wall and ventricular septum (LV+S). Fixation was performed by immersion of the lungs in a 10% paraformaldehyde solution. For paraffin embedding, the entire lungs were dissected in tissue blocks from all lobes. Sectioning at 5 μm was performed from all paraffin-embedded blocks. To assess the type of remodeling of muscular pulmonary arteries, the percentage of MWT was utilized to characterize vascular medial hypertrophy by α-SM-actin staining. Under 400× microscopic examination, MWT was defined as the distance between the internal and external elastic laminae using “ImageJ” software downloaded from the open source available from the internet. […]

[5] = system: MCT PASMCs; test: pAKT expression in MCT PASMCs; type: cell-based, rat
Procedure: as §1
Tissue samples or cell samples were homogenized in lysis buffer containing 50 mM Tris-HCl, pH 7.4, 50 mM NaCl, 5 mM EDTA, 1% Triton X-100, 0.05% SDS, 50 mM NaF, 10 mM β-glycerophosphate, sodium pyrophosphate, 100 μM Na3VO4, and protease inhibitor cocktail (Calbiochem, Millipore). […] Blots were visualized using an enhanced chemi-luminescence detection system (Millipore). Samples were normalized to GAPDH (Santa Cruz; 1:10000) and quantified by densitometry.

Compound	proliferation of control PASMCs [1]	serum-induced PASMC proliferation ([2]; 10% FBS)	level of lumican ([3]; lumikine 100 nM, hypoxic condition 24 hours, FIG. 4 panel B)	level of HIF-1α ([3]; lumikine 100 nM, hypoxic condition 24 hours, FIG. 4 panel C)	level of pSmad3 ([3]; lumikine 100 nM, hypoxic condition 24 hours, FIG. 4 panel D)	level of pAKT ([3]; lumikine 100 nM, hypoxic condition 24 hours, FIG. 4 panel E)	Smad4 ([3]; lumikine treatment, hypoxic condition, FIG. 4F)	right ventricular (RV) weight (RV/LV+S ratio) [4]	right ventricular (RV) weight (RV/LV+S ratio) ([4]; listed as Lumikine)	medial wall thickness (MWT) of the pulmonary artery ([4]; hypoxia mice, 3 ng/kg/day for 21 days (days 8-28), PAs 25-100 μm, FIG. 6 panel B)	pAKT expression [5]	effect on lumikine inhibition of MCT PASMC proliferation ([2]; H89 with lumikine (100 nM))
lumikine: synthetic peptide X1EX2LRVANEVTLN (SEQ ID NO: 1) in which X1 is tyrosine (Y) and X2 is alanine (A) (YEALRVANEVTLN)	no significantly effects; also recorded: did not affect	dose-dependently decrease; also recorded: inhibited significantly	increase	reduction	reduction	reduction	remained unaffected	significantly reduced	reduction	significantly reduction	reduced	–
O=S(=O)(NCCNC/C=C/c1ccc(Br)cc1)c1cccc2cnccc12 [H89, reference compound]	–	–	–	–	–	–	–	–	–	–	–	reversed
